This is an account of results in publication PMC9404653, “EphA4 targeting agents protect motor neurons from cell death induced by amyotrophic lateral sclerosis -astrocytes” (iScience, 2022).

Like-named read-outs stand apart in the source and are kept apart here. Non-standard residues stand in square brackets, D forms with d. Residues, ends and D or L forms follow the SMILES beside them. *: point of attachment. Cyclohexanoyl(1S,3S-3-NH2) = N[C@H]1CCC[C@H](C(=O)*)C1; Trp(5-OH) = N[C@@H](Cc1c[nH]c2ccc(O)cc12)C(=O)O; NH(4-morpholinophenyl) = c1cc(N2CCOCC2)ccc1N*; Bip = N[C@@H](Cc1ccc(-c2ccccc2)cc1)C(=O)O; hArg = N=C(N)NCCCC[C@H](N)C(=O)O; X1 = c1cc(N2CCNCC2)ccc1N*

The target in one data set is T1, EphA4-LBD (Homo sapiens, UniProt P54764).
T1 construct: Met labeled EphA4-LBD (29-209) (20 μM) in absence (blue)
T1 sequence (P54764 29-209): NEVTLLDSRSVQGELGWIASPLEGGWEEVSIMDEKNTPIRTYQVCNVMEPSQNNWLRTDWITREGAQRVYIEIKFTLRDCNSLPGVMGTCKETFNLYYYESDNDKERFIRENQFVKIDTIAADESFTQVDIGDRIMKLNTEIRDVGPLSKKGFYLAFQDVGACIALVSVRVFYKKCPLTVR
The data set can be described thus: 2D [13C,1H] NMR chemical shift perturbation of 13Cε-Met labeled EphA4-LBD. It is filed as binding. The following applies: for Chemical shift perturbation to Met 115 (G-H loop): 13Cε-Met labeled EphA4-LBD; for Δδ Met 60 / Δδ Met 164: weight average 1H/13C chemical shift perturbation, 20 μM EphA4-LBD, 298 K. As for the experimental part:
(§1) Previously, we deployed the HTS by NMR (High-throughput Screening by Nuclear Magnetic Resonance) approach targeting the EphA4 ligand-binding domain to identify possible ligands from a tri-peptide positional scanning library consisting of ∼125,000 agents ([Wu et al., 2013]). Initial screen and subsequent structure-activity relationships studies lead to agent 123C4 (Table 1), with an affinity for the isolated EphA4 ligand-binding domain (LBD) of ∼400 nM by isothermal titration calorimetry (ITC) ([Wu et al., 2013], [2017]). In follow-up studies, we derived a new combinatorial library based on the critical N-terminal aliphatic amine of 123C4 (a common feature also of antagonistic peptides) ([Olson et al., 2016]; [Wu et al., 2013]) and exploited our previous experience with the fHTS by NMR ([Baggio et al., 2017]), we rapidly identified a new hit molecule ([Baggio et al., 2021]). We also developed an efficient strategy to anticipate if ligand binding would induce changes in EphA4 conformation that are more compatible with agonist versus antagonist binding ([Baggio et al., 2021]). This was accomplished by protein NMR using EphA4-LBD that is uniformly labeled with ^13C^ε-methionine ([Wu et al., 2017]). […] In particular, EphA4 residues Met 164, Met 60 (in the binding site), and Met 115 are located in the D-E loop, J-K loop, and G-H loop of the EphA4-LBD, respectively (Figures 1A-1C). […] For example, we reported that the 13mer antagonistic cyclic peptide APY-d3 ([Olson et al., 2016]) induces changes not only in binding site Met 164 and Met 60 resonances, but also in Met 115, located in the G-H loop, that is at the EphA4-LBD dimerization interface (Figure 1D). […] With these considerations in mind, ligand 150D4 was previously derived as described in our recent studies (Table 1; [Baggio et al., 2021]). […] Dissociation constant determination was obtained via isothermal titration calorimetry (ITC) measurements (Table 1, Figure 2). Similarly, selectivity studies were performed via ITC and ligand-binding domain constructs representing the two most closely related Eph domains, namely EphA3 and EphA2 (Table 1). […] These studies culminated in the identification of agonistic agents targeting the EphA4 ligand-binding domain.
NMR spectra were acquired on Bruker Avance III 700MHz spectrometer equipped with a TCI cryoprobe. All NMR data were processed and analyzed using TOPSPIN 3.6.1 (Bruker, Billerica, MA, USA). 2D-[^13C,^1H]-HSQC experiments were acquired with 20 μM proteins using 16 scans with 2,048 and 256 complex data points in the ^1H and […] dimensions, respectively, at 298 K. Chemical shift changes (Δδ) in the 2D [^13C, ^1H] spectra were calculated as weight average perturbations observed in the ^1H and ^13C dimensions using the following Equation: Δδ=1/2∗[(Δ^1H)^2+(0.3∗Δ^13C)^2]

Data set [1] concerns the target T2, EphA4 ligand-binding domain (Homo sapiens, UniProt P54764). Kind of data set: Isothermal titration calorimetry (ITC) vs EphA4-LBD. The conditions noted are these: for N (ITC stoichiometry): ITC curve, Figure 2C/2D; for Kd: ITC, 25°C, 25 mM Tris pH 7.5, 150 mM NaCl, 1% DMSO, mean ± SE, n = 2. As for the experimental part:
as §1
Isothermal titration calorimetry measurements were performed using the Affinity ITC Autosampler from TA Instruments (New Castle, DE). The titrations were performed in a reverse fashion by titrating the protein into the ligand solution. […] Each titration was performed twice and individually using the ITCRun software, analyzed using NanoAnalyze software (TA Instruments, New Castle, DE) and subsequently exported into Microsoft Excel. […]
For orientation: ITC needs no label: the signal is the heat of the interaction.

The subject of data set [2] is motor neurons co-cultured with patient iAstrocytes (sALS, mutant SOD1). The data set can be described thus: Patient iAstrocyte:motor neuron co-culture, motor neuron survival. The following applies: 10 μM, sALS patient iAs (ALS1; second patient line Figure S3).
Description: Here, we tested the effectiveness of synthetic agonists by co-culturing patient iAs (2 sALS and 3 mtSOD1, Sup. Table 1) and mouse motor neurons in the presence of 123C4 (Figure 5A). Three days following co-culture surviving motor neurons were imaged (Figure 5B).
At the time of motor neuron seeding, the drug was removed via aspiration, and motor neurons in freshly prepared media were cultured on the iAs monolayer. In addition, 123C4 was also added at the time of co-culture as described in Figure 5A.
To accommodate a compound screen of this size, co-culture assays were adapted to a 384 well format.
Induced Astrocytes were generated by seeding a low quantity of NPCs into astrocyte medium (DMEM media containing 10% FBS and 0.2% N2) for five days. Following differentiation, iAstrocytes were lifted and seeded into a 96 well (10,000 cells per well) or 384 well (2500 cells per well) plate. Differentiations were repeated at separate passages and each differentiation was counted as an independent experiment.
Cells are sorted through a 100 μm tip with sheath pressure of 27. GFP + motor neurons were seeded in a 96 well plate (10,000 cells per well) or 384 well (1,000 cells per well) in triplicate for each condition. Co-cultures were imaged with InCell Analyzer 6000 automated microscopy system for up to six days. […]
Data set [3] in a line: Aqueous solubility by 1H NMR. It is filed as physicochemical. The conditions noted are these: water; determined by 1H NMR.
Data set [4] addresses ephrinA4 or ephrinA5 (Homo sapiens) (UniProt P52803). The conditions noted are these: cited from earlier work.
Data set [5] addresses T2, EphA4 ligand-binding domain. The conditions noted are these: ref Bowden et al., 2009a, 2009b, read-out: Affinity of intact ephrin ligands for EphA4; cited from earlier work.

T2 sequence (P54764 30-209 limits assumed): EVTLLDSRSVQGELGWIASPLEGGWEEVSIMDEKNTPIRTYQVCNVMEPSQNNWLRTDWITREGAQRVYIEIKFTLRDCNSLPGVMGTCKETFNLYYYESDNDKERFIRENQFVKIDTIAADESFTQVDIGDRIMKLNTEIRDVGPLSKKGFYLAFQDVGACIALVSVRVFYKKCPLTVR

One may read the solubility as the concentration that dissolves in the medium under given conditions. Lower therefore signals little dissolved substance. As for `N=C(N)NCCCC[C@H](NC(=O)[C@H](Cc1ccc(-c2ccccc2)cc1)NC(=O)[C@H](Cc1c[nH]c2ccc(O)cc12)NC(=O)[C@H]1CCC[C@H](N)C1)C(=O)NCC(=O)Nc1ccc(N2CCNCC2)cc1` [150E8, (1S,3S)-N-((S)-1-(((S)-3-([1,1'-biphenyl]-4-yl)-1-(((S)-6-guanidino-1-oxo-1-((2-oxo-2-((4-(piperazin-1-yl)phenyl)amino)ethyl)amino)hexan-2-yl)amino)-1-oxopropan-2-yl)amino)-3-(5-hydroxy-1H-indol-3-yl)-1-oxopropan-2-yl)-3-aminocyclohexane-1-carboxamide] ({Cyclohexanoyl(1S,3S-3-NH2)}-[Trp(5-OH)][Bip][hArg]G-X1), at EphA4-LBD, the “Chemical shift perturbation to Met 115 (G-H loop)” value was “do not alter loop G-H”, the “Δδ Met 60” value is listed as “++ (0.05 ppm < ++ < 0.1 ppm)” and the “Δδ Met 164” value is “++++ (++++ > 0.3 ppm)”. In addition, in data set [1], the “N (ITC stoichiometry)” value came to 1.01 and the Kd was determined as 94.3 ± 4.4 nM. Also, the Motor neuron survival entry in data set [2] is reported as “effective at preventing motor neuron death”. Further, the solubility in data set [3] was greater than 50 mM.
Turning to `C[C@@H](NC(=O)[C@H](CCCCNC(=N)N)NC(=O)[C@H](Cc1ccc(-c2ccccc2)cc1)NC(=O)[C@H](Cc1c[nH]c2ccc(O)cc12)NC(=O)[C@H]1CCC[C@H](N)C1)C(=O)Nc1ccc(N2CCOCC2)cc1` [150E7, (1S,3S)-N-((S)-1-(((S)-3-([1,1'-biphenyl]-4-yl)-1-(((S)-6-guanidino-1-(((R)-1-((4-morpholinophenyl)amino)-1-oxopropan-2-yl)amino)-1-oxohexan-2-yl)amino)-1-oxopropan-2-yl)amino)-3-(5-hydroxy-1H-indol-3-yl)-1-oxopropan-2-yl)-3-aminocyclohexane-1-carboxamide] ({Cyclohexanoyl(1S,3S-3-NH2)}-[Trp(5-OH)][Bip][hArg][dA]-{NH(4-morpholinophenyl)}), on EphA4-LBD, the “Chemical shift perturbation to Met 115 (G-H loop)” value is on record as “do not alter loop G-H”, the “Δδ Met 60” value is recorded as “+++ (+++ > 0.1 ppm)” and the “Δδ Met 164” value is “++ (0.2 ppm < ++ < 0.25 ppm)”. In data set [1], the “N (ITC stoichiometry)” value is given as 0.99 and the Kd came to 129 ± 4.5 nM. Moreover, the Motor neuron survival result in data set [2] is “effective at preventing motor neuron death”. In data set [3], the solubility was greater than 50 mM.
Regarding “EphA4 ligand-binding domain (from UniProt P54764)”, in data set [4], the Kd is 360 nM.

B1: ephrinA5: intact ephrin ligand of EphA4 (protein, UniProt P52803 21-203, looked up)
Ephrin-A5: QDPGSKAVADRYAVYWNSSNPRFQRGDYHIDVCINDYLDVFCPHYEDSVPEDKTERYVLYMVNFDGYSACDHTSKGFKRWECNRPHSPNGPLKFSEKFQLFTPFSLGFEFRPGREYFYISSAIPDNGRRSCLKLKVFVRPTNSCMKTIGVHDRVFDVNDKVENSLEPADDTVHESAEPSRGEN
Regarding B1, the Kd in data set [5] was roughly 360 nM.

B2: ephrinA4: intact ephrin ligand of EphA4 (protein, UniProt P52798 26-170, looked up)
Ephrin-A4: LRHVVYWNSSNPRLLRGDAVVELGLNDYLDIVCPHYEGPGPPEGPETFALYMVDWPGYESCQAEGPRAYKRWVCSLPFGHVQFSEKIQRFTPFSLGFEFLPGETYYYISVPTPESSGQCLRLQVSVCCKERKSESAHPVGSPGES
In the case of B2, the Kd in data set [5] is roughly 360 nM.
